Assay results from patent US10842794B2, “Use of Sigma-1 receptor agonist compounds” (MTA TÁMOGATOTT KUTATÓCSOPORTOK IRODÁJA, priority 2014, dated 2020).

Columns and labels:
[1] = system: NRK49F rat kidney interstitial fibroblast cell lines; test: PDGFB-induced myofibroblast proliferation (MTT); type: cell-based; settings: for PDGF-induced myofibroblast proliferation: 10 ng/mL PDGFB, 24 hours, different concentrations of agonist
[2] = system: rat model of bleomycin-induced lung fibrosis; test: Rat model of bleomycin induced pulmonary fibrosis: αSMA protein in lung, western blot; type: in vivo; settings: fluvoxamine 20 mg/bwkg/day + NE-100 1 mg/bwkg/day for three weeks
Description: (Bars represent Mean±SEM, n=6/group).
(§1) For the induction of pulmonary fibrosis male Wistar rats were anesthetized. Bleomycin (5 mg/bwkg in a 300 μl solution of isotonic saline) or 300 μl isotonic saline was administered into the trachea using a 30G needle.
(§2) Animals were randomly divided into 4 groups of 6 rats each as follows (i)—control group was sham operated, received isotonic saline per os daily for 3 weeks, (ii) vehicle treated group: received isotonic saline per os daily for 3 weeks after the induction of lung fibrosis, (iii) fluvoxamine treated group: received fluvoxamine (20 mg/bwkg/day per os for 3 weeks after the induction of lung fibrosis), (iv) fluvoxamine+NE100 treated group: received fluvoxamine (20 mg/bwkg/day; per os) and 1 mg/bwkg/day NE100 (i.p. for 3 weeks after the induction of lung fibrosis. […]
Tissue samples were lysed in buffer containing leupeptin, aprotinin, Triton X-100, Tris-HCl, Ethylene glycol-bis (2-aminoethylether),N,N,N′,N′-tetraacetic-acid, NaF, Phenylmethylsulphonylfluoride and Na-orthovanadate (each substance were purchased from Sigma-Aldrich Co., St. Louis, Mo., USA) and centrifuged to pellet nuclei and large cellular fragments. Protein concentration of the supernatants was determined by Bradford assay (Bio-Rad Laboratories, Hercules, Calif., USA). […] Bands were analyzed with Quantity One software version 4.6.9. […]

[3] = system: rat model of bleomycin-induced lung fibrosis; test: Rat model of bleomycin induced pulmonary fibrosis: Masson trichrome staining of lung; type: in vivo; settings: fluvoxamine 20 mg/bwkg/day + NE-100 1 mg/bwkg/day for three weeks
Description: Masson trichrome staining of tissue sections was performed Bars represent Mean±SEM, n=6/group). Specifically:
as §1, §2
The stained sections were viewed and photographed with Pannoramic 250 Flash and Pannoramic Viewer 1.15.2 (3D HISTECH Ltd. Budapest, Hungary) Adobe Photoshop 13.0 and Scion Image for Windows software were used for the analysis. […] Finally these ratios were statistically analyzed in all of the treatment groups.

[4] = system: Streptozotocin induced type 1 diabetic rats; test: Diabetic rat kidney: fibronectin staining; type: in vivo; settings: fluvoxamine 20 mg/bwkg/day + NE-100 1 mg/bwkg/day
[5] = system: mice with unilateral ureter obstruction (UUO); test: Mice model of unilateral ureteral obstruction (UUO): Masson's trichrome, tubulointerstitial fibrosis; type: in vivo; settings: fluvoxamine 20 mg/bwkg/day + NE-100 1 mg/bwkg/day for one week
NRK49F cells = test: Cell viability MTT assay in myofibroblasts; type: cell-based, rat; settings: 24-hours treatment, commonly used doses 1-10 μM
[6] = system: Streptozotocin induced type 1 diabetic rats; test: Diabetic rat kidney: αSMA protein level, western blot; type: in vivo; settings: diabetic rats, fluvoxamine + NE-100 1 mg/bwkg/day
[7] = system: Streptozotocin induced type 1 diabetic rats; test: Diabetic rat kidney: Masson's trichrome staining, tubulointerstitial fibrosis; type: in vivo; settings: rats treated with 20 mg fluvoxamine + NE-100 1 mg/bwkg/day
[8] = system: Streptozotocin induced type 1 diabetic rats; test: Diabetic rat kidney: PAS staining, mesangial matrix expansion; type: in vivo; settings: fluvoxamine 20 or 2 mg/bwkg/day + NE-100 1 mg/bwkg/day
NRK49F myofibroblasts = settings: all applied concentrations, even the smallest 1 μM
Description: In 6-well plates of NRK49F myofibroblasts (6×10^6 cells/well) TGF-β (1 nM) induced production of fibrillar components of the extracellular matrix was measured by Sirius Red staining. To investigate the effect of S1R agonist compounds a group of cells was treated for 48 hours with the various S1R agonists. Solvent treated cells served as controls. (Bars represent mean±SEM)
To investigate the deposition of fibrillar collagen Sirius Red staining was performed. 48 hours after the treatment with TGF-β and said compounds the NRK-49F cells were incubated for 10 minutes with Kahle fixative solution. 0.1% Sirius Red (Direct Red 80, Sigma-Aldrich) in 1.2% picric acid was added for each well and plates were incubated for 30 minutes at RT. The unconnected dye molecules were washed with distilled water. The bound Sirius Red dye was eluated with 0.1 M NaOH solution, absorbance was recorded at 540 nm in a Hidex Chameleon Microplate Reader (Triathler, Plate Chameleion, 300SL Lablogic Systems, Inc., Brandon, Fla., USA) used MikroWin program. Vehicle treated cells served as controls.

PCP receptors = settings: cited from earlier work
S2R = S2R (Homo sapiens, UniProt Q5BJF2); settings: read-out: Ki for σ2 receptors; cited from earlier work
S2R, sequence (Q5BJF2 whole entry, species assumed): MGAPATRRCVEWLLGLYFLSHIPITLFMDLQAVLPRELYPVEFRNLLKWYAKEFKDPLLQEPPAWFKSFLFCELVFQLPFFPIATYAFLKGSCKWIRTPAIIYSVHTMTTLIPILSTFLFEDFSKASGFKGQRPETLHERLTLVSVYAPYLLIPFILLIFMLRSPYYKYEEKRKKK

[9] = system: Japanese patients with IPF; settings: 1,800 mg/day, 107 Japanese patients with IPF; cited from earlier work
[10] = system: post-AMI left ventricular remodeling / infarct expansion; settings: cited from earlier work

With `CCCN(CCC)CCc1ccc(OC)c(OCCc2ccccc2)c1.Cl` [NE-100, 4-Methoxy-3-(2-phenylethoxy)-N,N-dipropylbenzeneethanamine hydrochloride] the “effect of NE-100 co-incubation on anti-proliferative effect of fluvoxamine” value ([1]; NE-100 3 μM with fluvoxamine 10 μM, PDGF-induced) was “suspended the effect of fluvoxamine”, the “effect of NE-100 on fluvoxamine's effect on lung αSMA” value [2] was “suspended the beneficial effect of fluvoxamine” and the “effect of NE-100 on fluvoxamine's effect on lung fibrosis” value [3] was “suspended the effect of fluvoxamine”. The “effect of NE-100 on fluvoxamine's effect on fibronectin accumulation” value [4] was “suspended this beneficial effect”, the “effect of NE-100 on fluvoxamine's effect on tubulointerstitial fibrosis after UUO” value [5] was “suspended the beneficial effect of fluvoxamine” and the “cytotoxicity / cell viability in myofibroblasts” value (shortened to “cytotoxicity / cell viability”) (NRK49F cells) was “not cytotoxic”. The “effect of NE-100 co-administration on fluvoxamine's effect on αSMA protein level” value [6] was “suspended”, the “effect of NE-100 co-administration on protective effect of fluvoxamine (tubulointerstitial fibrosis)” value [7] was “inhibited the protective effect of fluvoxamine” and the “effect of NE-100 co-administration on renoprotection of fluvoxamine (mesangial matrix expansion)” value [8] was “prohibited the renoprotection of fluvoxamine”.

For `O=C(OCCN1CCOCC1)C1(c2ccccc2)CCCCC1` [PRE-084, 2-morpholin-4-ylethyl 1-phenylcyclohexane-1-carboxylate], the PDGF-induced myofibroblast proliferation [1] is given as “significantly decreased PDGF-induced myofibroblast proliferation”, the “TGFβ-induced ECM production (Sirius Red)” value (NRK49F myofibroblasts) is given as “significantly inhibited TGFβ-induced ECM production” and the IC50 (PCP receptors) is given as > 100 µM. The Ki (S2R) was 13.1 µM and the “cytotoxicity / cell viability” value (NRK49F cells) was “not cytotoxic”.

With `COc1ccc(CCN2CCN(CCCc3ccccc3)CC2)cc1OC` [SA-4503, 1-[2-(3,4-Dimethoxyphenyl)ethyl]-4-(3-phenylpropyl)piperazine] the PDGF-induced myofibroblast proliferation [1] was “significantly decreased PDGF-induced myofibroblast proliferation”, the “TGFβ-induced ECM production (Sirius Red)” value (NRK49F myofibroblasts) was “significantly inhibited TGFβ-induced ECM production” and the “cytotoxicity / cell viability” value (NRK49F cells) was “not cytotoxic”.

In the case of `Cc1ccc(=O)n(-c2ccccc2)c1` [pirfenidone, 5-Methyl-1-phenylpyridin-2-one], the “primary end point, pirfenidone versus placebo” value [9] is given as “not significantly different between the two groups”.

For `COc1ccc(/C=C/C(=O)Nc2ccccc2C(=O)O)cc1OC` [tranilast, 2-{[(2E)-3-(3,4-dimethoxyphenyl)prop-2-enoyl]amino}benzoic acid], the left ventricular remodeling ([10]; commencement of treatment delayed to 7 days post-AMI) is listed as “impeded left ventricular remodeling” and the infarct expansion ([10]; intervention from 24h post-AMI) is listed as “exacerbated infarct expansion”.
